From publication PMC7549094 (Journal of Medicinal Chemistry, 2020)
pIC50: −log10 of the molar value.

Assays:
[1] = dissolution study and supersaturation stability in FASSIF; assay type: physicochemical
[2] = metabolite profile in dog hepatocytes; assay type: in vitro ADME; details: 10 μM of 1 for 4 h, UV 250 nm, normalized to largest peak
[3] = target: human CYP2D6 (Homo sapiens, UniProt P10635); details: human recombinant CYP; 1 µM, 30 min
[4] = target: wild-type (PSMB4^WT) L. tarentolae proteasome (Leishmania tarentolae, UniProt A0A640KTY7+A0A640KW57); assay: chymotrypsin-like activity of purified wild-type L. tarentolae proteasome; assay type: biochemical; details: n = 3 technical replicates
wild-type (PSMB4^WT) L. tarentolae proteasome, sequence (A0A640KW57 100-302): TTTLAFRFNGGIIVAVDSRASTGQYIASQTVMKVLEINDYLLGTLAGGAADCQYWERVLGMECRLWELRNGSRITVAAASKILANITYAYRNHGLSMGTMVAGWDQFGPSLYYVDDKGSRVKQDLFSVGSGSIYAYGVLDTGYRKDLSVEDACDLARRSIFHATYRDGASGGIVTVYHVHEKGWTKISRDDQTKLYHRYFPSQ
wild-type (PSMB4^WT) L. tarentolae proteasome, sequence (A0A640KTY7 1-206): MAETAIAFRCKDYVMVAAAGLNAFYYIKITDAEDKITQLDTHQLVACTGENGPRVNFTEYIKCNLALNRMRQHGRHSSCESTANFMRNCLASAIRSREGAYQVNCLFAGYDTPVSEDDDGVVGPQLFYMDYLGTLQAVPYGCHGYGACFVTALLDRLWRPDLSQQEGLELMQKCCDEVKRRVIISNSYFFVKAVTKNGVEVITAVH

[5] = target: T1, hr Alpha2C (Homo sapiens, UniProt P18825); assay: receptor profile (Table S4); assay type: binding
T1 sequence (P18825 1-462): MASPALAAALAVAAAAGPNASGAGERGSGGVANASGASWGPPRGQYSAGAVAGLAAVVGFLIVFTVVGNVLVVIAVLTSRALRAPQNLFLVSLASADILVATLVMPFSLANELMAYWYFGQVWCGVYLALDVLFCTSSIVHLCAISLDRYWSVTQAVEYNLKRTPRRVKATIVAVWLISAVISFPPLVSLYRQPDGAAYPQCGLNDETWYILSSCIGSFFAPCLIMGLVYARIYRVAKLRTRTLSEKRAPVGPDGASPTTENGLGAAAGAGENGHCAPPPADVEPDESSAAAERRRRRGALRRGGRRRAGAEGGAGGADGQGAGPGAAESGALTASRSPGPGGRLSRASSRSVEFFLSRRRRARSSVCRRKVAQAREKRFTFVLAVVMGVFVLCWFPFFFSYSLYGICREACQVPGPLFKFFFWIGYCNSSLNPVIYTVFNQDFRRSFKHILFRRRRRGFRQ

[6] = target: hr Mot (Homo sapiens, UniProt O43193); assay: receptor profile (Table S4); assay type: binding
hr Mot, sequence (O43193 whole entry): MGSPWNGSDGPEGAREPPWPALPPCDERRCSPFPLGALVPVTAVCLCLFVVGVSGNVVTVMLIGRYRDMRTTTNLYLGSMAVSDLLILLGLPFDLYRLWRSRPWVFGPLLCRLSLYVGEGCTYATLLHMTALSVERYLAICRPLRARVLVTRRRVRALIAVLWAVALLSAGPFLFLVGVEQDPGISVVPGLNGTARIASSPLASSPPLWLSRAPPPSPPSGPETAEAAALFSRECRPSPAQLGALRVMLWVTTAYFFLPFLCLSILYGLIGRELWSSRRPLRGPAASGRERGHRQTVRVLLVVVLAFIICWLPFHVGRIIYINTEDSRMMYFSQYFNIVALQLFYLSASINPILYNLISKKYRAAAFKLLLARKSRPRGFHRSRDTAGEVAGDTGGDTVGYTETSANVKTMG

[7] = target: T2, hr PR antag (Homo sapiens, UniProt P06401); assay: receptor profile (Table S4); assay type: biochemical
T2 sequence (P06401 1-933): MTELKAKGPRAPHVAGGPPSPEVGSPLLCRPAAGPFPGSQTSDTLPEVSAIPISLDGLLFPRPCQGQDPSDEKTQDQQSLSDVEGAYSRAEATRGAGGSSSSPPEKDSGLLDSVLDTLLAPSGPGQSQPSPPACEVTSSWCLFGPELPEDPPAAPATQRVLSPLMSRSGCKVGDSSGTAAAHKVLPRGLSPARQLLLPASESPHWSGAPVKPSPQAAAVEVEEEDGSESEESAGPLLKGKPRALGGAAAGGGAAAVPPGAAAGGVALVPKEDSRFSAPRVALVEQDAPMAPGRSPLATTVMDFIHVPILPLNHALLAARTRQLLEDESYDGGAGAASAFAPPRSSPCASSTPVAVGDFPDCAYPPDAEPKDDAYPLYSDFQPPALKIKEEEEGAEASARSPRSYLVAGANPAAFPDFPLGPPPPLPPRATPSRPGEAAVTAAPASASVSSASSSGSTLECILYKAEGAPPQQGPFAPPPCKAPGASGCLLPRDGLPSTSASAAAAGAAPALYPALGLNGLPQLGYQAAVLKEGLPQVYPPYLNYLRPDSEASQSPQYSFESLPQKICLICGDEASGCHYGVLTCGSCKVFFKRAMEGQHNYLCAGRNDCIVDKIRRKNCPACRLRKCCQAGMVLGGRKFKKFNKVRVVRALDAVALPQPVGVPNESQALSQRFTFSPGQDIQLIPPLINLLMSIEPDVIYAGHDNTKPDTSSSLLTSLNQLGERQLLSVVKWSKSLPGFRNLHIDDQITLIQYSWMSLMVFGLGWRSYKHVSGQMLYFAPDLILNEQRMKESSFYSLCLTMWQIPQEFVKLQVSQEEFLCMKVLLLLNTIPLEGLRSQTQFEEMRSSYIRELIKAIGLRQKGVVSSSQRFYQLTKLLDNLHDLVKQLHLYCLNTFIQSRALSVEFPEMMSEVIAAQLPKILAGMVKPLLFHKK

[8] = target: hr ERBB2 (Homo sapiens, UniProt P04626); assay: receptor profile (Table S4); assay type: biochemical
hr ERBB2, sequence (P04626 23-1255): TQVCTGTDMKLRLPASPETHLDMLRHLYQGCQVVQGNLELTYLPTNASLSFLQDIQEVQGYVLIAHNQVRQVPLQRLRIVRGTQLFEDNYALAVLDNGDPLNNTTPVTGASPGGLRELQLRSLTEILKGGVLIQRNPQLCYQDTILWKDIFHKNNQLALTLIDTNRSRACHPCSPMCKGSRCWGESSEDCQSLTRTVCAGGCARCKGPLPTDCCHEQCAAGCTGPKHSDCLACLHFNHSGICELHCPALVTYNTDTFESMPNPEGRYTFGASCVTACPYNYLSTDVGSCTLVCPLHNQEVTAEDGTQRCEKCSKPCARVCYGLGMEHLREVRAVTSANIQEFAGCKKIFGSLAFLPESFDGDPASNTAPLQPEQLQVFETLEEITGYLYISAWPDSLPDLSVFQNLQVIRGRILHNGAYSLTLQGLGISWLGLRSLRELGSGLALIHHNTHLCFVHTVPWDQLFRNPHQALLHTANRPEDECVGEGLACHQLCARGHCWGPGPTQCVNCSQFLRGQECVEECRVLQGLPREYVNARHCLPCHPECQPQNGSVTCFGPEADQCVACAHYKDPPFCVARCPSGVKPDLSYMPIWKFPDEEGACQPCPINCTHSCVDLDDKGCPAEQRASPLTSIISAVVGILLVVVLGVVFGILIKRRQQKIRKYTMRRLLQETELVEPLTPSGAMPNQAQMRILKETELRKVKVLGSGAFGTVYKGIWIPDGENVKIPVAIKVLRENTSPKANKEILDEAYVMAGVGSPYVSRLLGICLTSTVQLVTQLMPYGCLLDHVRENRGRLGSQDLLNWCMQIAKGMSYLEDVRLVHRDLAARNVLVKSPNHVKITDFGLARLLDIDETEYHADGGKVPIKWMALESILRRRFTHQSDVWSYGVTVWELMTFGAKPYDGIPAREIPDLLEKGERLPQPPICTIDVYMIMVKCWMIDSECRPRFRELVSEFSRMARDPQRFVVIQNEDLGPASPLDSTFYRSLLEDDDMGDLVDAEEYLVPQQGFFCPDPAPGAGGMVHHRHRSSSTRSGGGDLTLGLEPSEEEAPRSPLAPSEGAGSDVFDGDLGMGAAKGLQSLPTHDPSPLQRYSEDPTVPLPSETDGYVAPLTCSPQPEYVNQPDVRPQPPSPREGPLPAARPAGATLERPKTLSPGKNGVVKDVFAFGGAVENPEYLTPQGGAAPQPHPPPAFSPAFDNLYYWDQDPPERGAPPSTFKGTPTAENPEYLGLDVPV

[9] = microsomal extraction ratio, 1 h incubation in microsomes
[10] = male Sprague–Dawley rat, 10 mg/kg PO; dose-normalized
[11] = system: hr GABAA antag
[12] = target: Nav1.5 (Homo sapiens, UniProt Q14524); assay: receptor profile (Table S4); details: human
Nav1.5, sequence (Q14524 whole entry): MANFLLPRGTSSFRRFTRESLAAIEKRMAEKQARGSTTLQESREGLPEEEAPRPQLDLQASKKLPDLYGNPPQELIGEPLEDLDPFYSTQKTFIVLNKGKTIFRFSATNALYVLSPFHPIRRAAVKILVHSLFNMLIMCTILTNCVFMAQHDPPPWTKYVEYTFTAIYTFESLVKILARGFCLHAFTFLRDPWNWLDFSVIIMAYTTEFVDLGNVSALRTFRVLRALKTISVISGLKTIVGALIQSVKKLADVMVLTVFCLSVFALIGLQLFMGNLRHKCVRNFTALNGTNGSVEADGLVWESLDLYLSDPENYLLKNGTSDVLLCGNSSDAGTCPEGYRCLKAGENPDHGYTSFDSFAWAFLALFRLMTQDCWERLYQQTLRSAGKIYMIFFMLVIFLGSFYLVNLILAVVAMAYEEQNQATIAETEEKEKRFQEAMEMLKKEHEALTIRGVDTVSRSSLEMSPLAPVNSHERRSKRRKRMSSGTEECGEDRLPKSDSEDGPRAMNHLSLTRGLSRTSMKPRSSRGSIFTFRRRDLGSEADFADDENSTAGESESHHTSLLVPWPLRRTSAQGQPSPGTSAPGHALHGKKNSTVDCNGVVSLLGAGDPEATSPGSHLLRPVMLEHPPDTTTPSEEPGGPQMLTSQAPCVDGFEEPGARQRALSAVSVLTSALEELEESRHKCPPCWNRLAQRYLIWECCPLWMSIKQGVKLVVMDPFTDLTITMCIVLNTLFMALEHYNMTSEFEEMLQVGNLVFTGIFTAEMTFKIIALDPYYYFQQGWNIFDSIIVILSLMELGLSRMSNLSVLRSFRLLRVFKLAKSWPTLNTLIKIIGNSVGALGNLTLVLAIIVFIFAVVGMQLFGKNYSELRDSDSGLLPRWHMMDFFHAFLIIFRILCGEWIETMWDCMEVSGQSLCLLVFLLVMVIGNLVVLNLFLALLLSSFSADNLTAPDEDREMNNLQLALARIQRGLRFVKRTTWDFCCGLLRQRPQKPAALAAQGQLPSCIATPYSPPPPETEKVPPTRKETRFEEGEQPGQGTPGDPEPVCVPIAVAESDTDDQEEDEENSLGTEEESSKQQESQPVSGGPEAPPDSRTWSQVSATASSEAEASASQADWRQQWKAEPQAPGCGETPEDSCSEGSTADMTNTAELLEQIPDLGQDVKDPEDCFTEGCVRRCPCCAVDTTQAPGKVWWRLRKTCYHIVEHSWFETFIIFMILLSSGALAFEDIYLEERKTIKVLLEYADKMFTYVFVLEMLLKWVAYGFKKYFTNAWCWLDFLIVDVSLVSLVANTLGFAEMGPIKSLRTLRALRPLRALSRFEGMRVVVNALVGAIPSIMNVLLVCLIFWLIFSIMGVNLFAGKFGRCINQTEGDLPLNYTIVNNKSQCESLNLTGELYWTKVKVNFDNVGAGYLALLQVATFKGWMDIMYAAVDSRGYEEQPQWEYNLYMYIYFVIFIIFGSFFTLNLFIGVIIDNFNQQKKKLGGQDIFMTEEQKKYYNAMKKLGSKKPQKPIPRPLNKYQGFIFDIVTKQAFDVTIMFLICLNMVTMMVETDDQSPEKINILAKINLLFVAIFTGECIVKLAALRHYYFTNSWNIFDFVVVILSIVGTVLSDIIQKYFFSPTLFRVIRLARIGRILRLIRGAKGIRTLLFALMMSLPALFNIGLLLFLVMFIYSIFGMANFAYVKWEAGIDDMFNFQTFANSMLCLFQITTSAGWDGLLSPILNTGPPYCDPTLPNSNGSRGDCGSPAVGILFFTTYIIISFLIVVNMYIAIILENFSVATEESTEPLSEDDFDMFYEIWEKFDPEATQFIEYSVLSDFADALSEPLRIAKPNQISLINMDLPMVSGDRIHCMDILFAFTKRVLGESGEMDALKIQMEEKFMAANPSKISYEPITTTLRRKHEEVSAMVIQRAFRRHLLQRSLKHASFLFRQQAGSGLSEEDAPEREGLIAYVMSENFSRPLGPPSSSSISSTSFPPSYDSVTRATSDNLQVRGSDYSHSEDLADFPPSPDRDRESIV

[13] = target: hr Nav1.5 (Homo sapiens, UniProt Q14524); assay: receptor profile (Table S4); details: hr Nav1.5
[14] = target: Cav1.2 (Homo sapiens, UniProt Q13936); assay: receptor profile (Table S4); details: human
[15] = target: hr Cav1.2 (Homo sapiens, UniProt Q13936); assay: receptor profile (Table S4); details: hr Cav1.2
[16] = target: PXR (Homo sapiens, UniProt O75469); assay: receptor profile (Table S4); details: human
PXR, sequence (O75469 whole entry): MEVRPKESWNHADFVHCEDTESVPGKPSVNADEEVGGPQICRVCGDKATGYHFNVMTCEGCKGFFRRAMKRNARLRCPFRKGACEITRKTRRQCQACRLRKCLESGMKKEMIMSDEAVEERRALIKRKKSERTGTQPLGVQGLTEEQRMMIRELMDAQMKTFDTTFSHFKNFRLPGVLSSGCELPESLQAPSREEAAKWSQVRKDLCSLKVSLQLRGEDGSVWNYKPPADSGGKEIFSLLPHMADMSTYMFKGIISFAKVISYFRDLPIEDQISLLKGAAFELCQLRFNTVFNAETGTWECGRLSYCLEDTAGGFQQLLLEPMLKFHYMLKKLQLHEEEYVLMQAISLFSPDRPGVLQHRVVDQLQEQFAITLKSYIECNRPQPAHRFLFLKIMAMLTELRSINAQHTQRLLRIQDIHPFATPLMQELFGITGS

[17] = target: hr PXR antag (Homo sapiens, UniProt O75469); assay: receptor profile (Table S4); details: hr PXR antag
hr PXR antag, sequence (O75469 whole entry): as above

human CYP2D6, sequence (P10635 whole entry): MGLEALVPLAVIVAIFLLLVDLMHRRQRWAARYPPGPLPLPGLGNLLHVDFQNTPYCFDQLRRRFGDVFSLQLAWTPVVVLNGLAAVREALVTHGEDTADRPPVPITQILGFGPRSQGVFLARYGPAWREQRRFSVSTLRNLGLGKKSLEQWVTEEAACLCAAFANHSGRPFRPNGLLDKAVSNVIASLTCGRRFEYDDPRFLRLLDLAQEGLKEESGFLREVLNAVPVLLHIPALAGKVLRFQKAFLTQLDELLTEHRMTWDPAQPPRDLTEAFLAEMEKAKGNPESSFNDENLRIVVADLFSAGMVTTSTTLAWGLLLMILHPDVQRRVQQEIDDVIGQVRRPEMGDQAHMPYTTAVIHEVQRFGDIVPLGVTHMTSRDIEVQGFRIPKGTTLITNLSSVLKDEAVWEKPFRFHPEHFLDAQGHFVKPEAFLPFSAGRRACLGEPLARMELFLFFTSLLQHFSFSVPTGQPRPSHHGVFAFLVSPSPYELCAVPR

Structure (SMILES): Cc1nc(C)c(C(=O)Nc2ccc(F)c(-c3nc4ncc(-c5ncccc5C)cn4n3)c2)o1 [compound 1, N-(4-Fluoro-3-(6-(3-methylpyridin-2-yl)-[1,2,4]triazolo[1,5-a]pyrimidin-2-yl)phenyl)-2,4-dimethyloxazole-5-carboxamide]
- concentration in FASSIF (supersaturation) ([1]; fumarate cocrystal of 1, FASSIF, at 16 min): 73 µM
- dissolution rate ([1]; fumarate cocrystal of 1 vs free base of 2, Figure 1): significantly higher dissolution rate
- abundance dog [2]: +++ (+++ > 75%)
- substrate of human CYP2D6 [3]: not a substrate
- pIC50 [4]: 7.30
- EC50/IC50 ([5]; hr Alpha2C): > 30 µM
- inhibition at 10 µM ([5]; read-out: % inh/act @ 10 µM): 13%
- inhibition at 30 µM ([5]; read-out: % inh/act @ 30 µM): 32%
- EC50/IC50 ([6]; hr Mot): > 30 µM
- inhibition at 10 µM ([6]; read-out: % inh/act @ 10 µM): -3%
- inhibition at 30 µM ([6]; read-out: % inh/act @ 30 µM): 3%
- EC50/IC50 ([7]; hr PR antag): > 30 µM
- inhibition at 10 µM ([7]; read-out: % inh/act @ 10 µM): -11%
- inhibition at 30 µM ([7]; read-out: % inh/act @ 30 µM): -5%
- EC50/IC50 ([8]; hr ERBB2): > 30 µM
- inhibition at 10 µM ([8]; read-out: % inh/act @ 10 µM): 0%
- inhibition at 30 µM ([8]; read-out: % inh/act @ 30 µM): 0%
- ER dog [9]: < 0.24
- DN AUC PO [10]: 12 µM·h
- DN Cmax PO [10]: 1.0 µM
- % inh/act @ 10 µM [11]: -5%
- % inh/act @ 30 µM [11]: -4%
- inhibition at 10 µM [12]: 8%
- inhibition at 30 µM [12]: 3%
- EC50/IC50 [13]: > 50 µM
- inhibition at 10 µM [14]: -3%
- inhibition at 30 µM [14]: -7%
- EC50/IC50 [15]: > 50 µM
- inhibition at 10 µM [16]: 26%
- EC50/IC50 [17]: > 30 µM
